Laboratory results from patent US4675337A, “Non-mutagenic 1,2-disubstituted 4-nitro-imidazoles useful as antiprotozoal agents” (priority 1986, dated 1987).
Converted amounts (≈) assume the structure as drawn. Read-outs that look alike come from different tables or passages of the source.

What was measured:
T. foetus [1] = assay: Trichomonal activity in vitro; assay type: cell-based; conditions: Tritrichomonas foetus, Table I, read-out: ED50 (T. foetus) in vitro
T. foetus [2] = assay: Trichomonal activity in vivo: survival of mice infected i.p. with T. foetus; conditions: Tritrichomonas foetus, po, 336 h
Description: Mice were infected through intraperitoneal (I.P.) injection of 1.4×10^7 T. foetus. Each compound disclosed in Table I below was dissolved in an aqueous vehicle, dosed to groups of mice (consisting of five) by gavage. The mice were dosed once per day for four consecutive days with doses ranging from 1-50 mg/kg. The effective dose of the compound, ED50, was calculated from the number of animals surviving a two week period.

Ames Salmonella TA100 = conditions: for In vivo Safety Index (rel to flagyl): relative increase in safety (1/mutagenicity) at the ED50 dose, relative to flagyl
From the text: This test involves the addition to a fermentation medium in which is growing a particular organism identified as Ames Salmonella TA100, and measuring the number of mutant organisms formed.

[3] = Cytotoxicity in rat hepatocytes; assay type: cell-based; conditions: relative to control cells
From the text: **Relative viability is the number of hepatocytes surviving exposure to
the nitroimidazoles relative to the control cells.

Rat hepatocytes = assay: Single strand DNA breaks in rat hepatocytes (elution); assay type: cell-based; conditions: for Relative Elution Slope: relative to control 1.00, ≥3.0 significant
From the text: *Measure of the extent of DNA strand cleavage. Only relative elution
slopes ≥3.0 are considered significant. Therefore, […]

[4] = Table I, gavage once per day for four consecutive days, survival over two weeks, read-out: ED50 (T. foetus) in vivo
[5] = Table III, read-out: T. foetus (ED50) In vivo
[6] = Table II, read-out: T. foetus In Vivo (ED50)
[7] = Table II, relative to ronidazole

IC50 (T. foetus [1])	Compound	ED50 (T. foetus [2]; [4])	ED50 (T. foetus [2]; [5])	Mutagenicity (Ames Salmonella TA100; Table III, Ames TA100 strain)	other results
25 µg/mL (≈ 114 µM)	CCn1cc([N+](=O)[O-])nc1S(C)(=O)=O [Compound 1]	10 to 50 mg/kg			
4 µg/mL (≈ 19.9 µM)	CC(C)Sc1nc([N+](=O)[O-])cn1C [Compound 10, 1-methyl-2-isopropylthio-4-nitroimidazole]	10 to 50 mg/kg			
4 µg/mL (≈ 19.9 µM)	CCCSc1nc([N+](=O)[O-])cn1C [Compound 9, 1-methyl-2-propylthio-4-nitroimidazole]	5 mg/kg			
0.4 µg/mL (≈ 2.34 µM)	Cc1ncc([N+](=O)[O-])n1CCO [Flagyl, 1-(2-hydroxyethyl)-2-methyl-5-nitro-imidazole, reference compound]	25 to 50 mg/kg	25 to 50 mg/kg		ED50 (T. foetus [2]; [6]): 50 mg/kg; viability at 3000 µM ([3]; 3.0 mM): 107%; viability at 10000 µM ([3]; 10.0 mM): 101%; DNA strand breaks (in words) (Rat hepatocytes; at both 3.0 and 10.0 mM): caused breaks
2.1 µg/mL (≈ 12.1 µM)	CSc1nc([N+](=O)[O-])cn1C [Compound 7, 1-methyl-2-methylthio-4-nitroimidazole]	5 to 10 mg/kg			
14 µg/mL (≈ 74 µM)	Cn1cc([N+](=O)[O-])nc1[S+](C)[O-] (stereo not drawn) [Compound 6, 1-methyl-2-methylsulfinyl-4-nitroimidazole]	2 to 5 mg/kg			

The remaining lines, values behind:

Compound	IC50 (T. foetus [1])	ED50 (T. foetus [2]; [4])	ED50 (T. foetus [2]; [5])	Mutagenicity (Ames Salmonella TA100; Table III, Ames TA100 strain)	other results
Cn1cc([N+](=O)[O-])nc1S(=O)(=O)c1ccccc1 [Compound 5, 1-methyl-2-phenylsulfonyl-4-nitroimidazole]	17 µg/mL (≈ 63.6 µM)	10 to 25 mg/kg	10 to 25 mg/kg	0.1 percent ronidazole	
CCS(=O)(=O)c1nc([N+](=O)[O-])cn1C [Compound 2, 1-methyl-2-ethylsulfonyl-4-nitroimidazole]	18.5 µg/mL (≈ 84.4 µM)	2 to 5 mg/kg	2 to 5 mg/kg	0.1 percent ronidazole	
CC(C)S(=O)(=O)c1nc([N+](=O)[O-])cn1C [Compound 4, 1-methyl-2-isopropylsulfonyl-4-nitroimidazole]	21 µg/mL (≈ 90 µM)	5 to 10 mg/kg	5 to 10 mg/kg	0.1 percent ronidazole	
Cn1c([N+](=O)[O-])cnc1COC(N)=O [Ronidazole, 1-methyl-2-[(carbamoyloxy)methyl]-5-nitroimidazole, reference compound]			5 to 10 mg/kg	100.0 percent ronidazole	ED50 (T. foetus [2]; [6]): 2 to 5 mg/kg; mutants per plate (Ames Salmonella TA100; 3 μg per plate): 358 mutants per plate; mutants per plate (Ames Salmonella TA100; 30 μg per plate): 2682 mutants per plate; In vivo Safety Index (rel to flagyl) (Ames Salmonella TA100; Table II): 0.7; Mutagenicity (Ames Salmonella TA100; [7]): 100 percent Ronidazole
CCCS(=O)(=O)c1nc([N+](=O)[O-])cn1C [Compound 3, 1-methyl-2-propylsulfonyl-4-nitroimidazole]	27 µg/mL (≈ 116 µM)	5 to 10 mg/kg	5 to 10 mg/kg	0.1 percent ronidazole	
CCSc1nc([N+](=O)[O-])cn1C [Compound 8, 1-methyl-2-ethylthio-4-nitroimidazole]	2.3 µg/mL (≈ 12.3 µM)	2 mg/kg			ED50 (T. foetus [2]; [6]): 2 mg/kg; viability at 500 µM ([3]; 0.5 mM): 107%; viability at 1500 µM ([3]; 1.5 mM): 105%; viability at 5000 µM ([3]; 5.0 mM): 102%; Relative Elution Slope (Rat hepatocytes; 0.5 mM): 1.33; Relative Elution Slope (Rat hepatocytes; 1.5 mM): 1.23; Relative Elution Slope (Rat hepatocytes; 5.0 mM): 1.60; significant DNA strand breakage (in words) (Rat hepatocytes; up to 5.0 mM): did not cause significant DNA strand; mutants per plate (Ames Salmonella TA100; 3 μg per plate): indistinguishable from background; mutants per plate (Ames Salmonella TA100; 30 μg per plate): indistinguishable from background; mutants per plate (Ames Salmonella TA100; 100 μg per plate): 30 mutants per plate; mutants per plate (Ames Salmonella TA100; 300 μg per plate): 65 mutants per plate; mutagenicity (conclusion in words) (Ames Salmonella TA100; Ames test): non-mutagenic; In vivo Safety Index (rel to flagyl) (Ames Salmonella TA100; Table II): > 1750; Mutagenicity (Ames Salmonella TA100; [7]): < 0.1 percent Ronidazole
